Test system: chromatin remodeling (pericentromeric heterochromatin)
Experiment: Chromatin remodeling with G9a inhibitor, effect of Tau (data not shown)
Type: cell-based

## COc1cc2nc(N3CCCN(C)CC3)nc(NC3CCN(Cc4ccccc4)CC3)c2cc1OC [BIX 01294]
  effect of Tau in preventing chromatin remodeling, compared with trichostatin A: same results

Reference: US20250134952A1, “METHODS FOR IMPROVING THE EFFICACY OF HDAC INHIBITOR THERAPY AND PREDICTING THE RESPONSE TO TREATMENT WITH HDAC INHIBITOR” (INSTITUT NATIONAL DE LA SANTÉ ET DE LA RECHERCHE MÉDICALE, priority 2021, published 2025)
